{
  "source": "ChEMBL document CHEMBL5233212",
  "about": "“Recent advance in the development of novel, selective and potent FGFR inhibitors” (Eur J Med Chem, 2020)",
  "key": {"[1]": {"target": "T1, Fibroblast growth factor receptor 1 (Homo sapiens, UniProt P11362)", "assay": "Inhibition of FGFR1 (unknown origin) in presence of ATP by caliper mobility shift assay"}, "[2]": {"target": "Tyrosine-protein kinase BTK (Homo sapiens, UniProt Q06187)", "sequence (Q06187 whole entry, the tested form may be a part)": "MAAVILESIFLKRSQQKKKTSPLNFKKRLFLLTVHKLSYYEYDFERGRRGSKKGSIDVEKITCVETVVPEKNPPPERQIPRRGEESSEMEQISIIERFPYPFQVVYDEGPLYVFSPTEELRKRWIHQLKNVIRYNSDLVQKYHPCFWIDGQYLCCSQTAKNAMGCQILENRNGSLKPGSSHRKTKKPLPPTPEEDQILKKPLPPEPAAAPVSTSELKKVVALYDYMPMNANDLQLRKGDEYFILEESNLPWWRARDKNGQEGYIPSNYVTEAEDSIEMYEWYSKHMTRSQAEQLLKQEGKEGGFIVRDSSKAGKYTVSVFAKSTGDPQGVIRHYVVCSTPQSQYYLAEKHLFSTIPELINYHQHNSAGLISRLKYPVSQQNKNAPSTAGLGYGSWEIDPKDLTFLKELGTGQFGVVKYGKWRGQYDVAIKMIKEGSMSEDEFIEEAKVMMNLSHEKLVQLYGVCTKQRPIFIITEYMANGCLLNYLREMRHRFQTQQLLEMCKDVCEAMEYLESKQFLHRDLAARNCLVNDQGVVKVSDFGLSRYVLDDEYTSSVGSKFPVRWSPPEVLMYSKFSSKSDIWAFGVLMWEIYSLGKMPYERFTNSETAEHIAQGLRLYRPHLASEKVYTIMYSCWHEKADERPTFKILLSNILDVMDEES", "assay": "Inhibition of human BTK (382 to 659 residues) expressed in baculovirus infected Sf21 insect cells preincubated for 15 mins followed by ATP addition and measured upto 180 mins by microfluidic capillary electrophoresis analysis"}, "[3]": {"target": "T1, Fibroblast growth factor receptor 1", "assay": "Inhibition of human recombinant FGFR1 using Poly (Glu, Tyr)4:1 as substrate at 10 nM incubated for 90 mins in presence of ATP by ELISA based spectrophotometer assay"}, "[4]": {"assay": "Antiproliferative activity against human KATO III stomach cancer cell line assessed as inhibition of cell growth incubated for 72 hrs by MTT colorimetric assay", "assay_type": "functional, cell-based"}, "RT-112": {"test_system": "RT-112", "assay": "Antiproliferative activity against human RT-112 cells assessed as inhibition of cell growth incubated for 72 hrs by MTT colorimetric assay", "assay_type": "functional, cell-based", "conditions": "RT-112, 72 h"}, "NCI-H1581": {"test_system": "NCI-H1581", "assay": "Antiproliferative activity against human NCI-H1581 cells assessed as inhibition of cell growth incubated for 72 hrs by MTT colorimetric assay", "assay_type": "functional, cell-based", "conditions": "NCI-H1581, 72 h"}, "SNU-16": {"test_system": "SNU-16", "assay": "Antiproliferative activity against human SNU-16 cells assessed as inhibition of cell growth incubated for 72 hrs by MTT colorimetric assay", "assay_type": "functional, cell-based", "conditions": "SNU-16, 72 h"}, "KG-1": {"test_system": "KG-1", "assay": "Antiproliferative activity against human KG-1 cells assessed as inhibition of cell growth incubated for 72 hrs by MTT colorimetric assay", "assay_type": "functional, cell-based", "conditions": "KG-1, 72 h"}, "[5]": {"target": "Fibroblast growth factor receptor (Homo sapiens, UniProt P22607+P11362+P22455+P21802)", "assay": "Inhibition of FGFR (unknown origin) using […] incubated for 60 mins by Kinase-Glo Plus luminescence assay", "assay_type": "protein assay"}},
  "data": [
    {"molecule": "CCC(=O)Oc1ccc(/C=C2\\CC/C(=C\\c3ccc(OC(=O)CC)c(OC)c3)C2=O)cc1OC", "values": [
      {"measurement": "IC50", "setting": "[1]", "value": 3000, "unit": "nM"}
    ]},
    {"molecule": "CNc1ncc2cc(-c3cc(OC)cc(OC)c3Cl)c(=O)n(CCc3ccc(NC(=O)/C(C#N)=C/C(C)(C)N)cc3)c2n1", "values": [
      {"measurement": "IC50", "setting": "[2]", "value": 0.5, "unit": "nM"}
    ]},
    {"molecule": "COc1cc(/C=C2\\CC/C(=C\\c3ccc(OC(=O)C(C)C)c(OC)c3)C2=O)ccc1OC(=O)C(C)C", "values": [
      {"measurement": "IC50", "setting": "[1]", "value": 2600, "unit": "nM"}
    ]},
    {"molecule": "Cn1cc(-c2cnc3cnn(S(=O)(=O)c4ccccc4)c3n2)cn1", "values": [
      {"measurement": "inhibition", "setting": "[3]", "value": "> 90", "unit": "%"}
    ]},
    {"molecule": "Cc1n[nH]c2ccc(-c3cc(N[C@@H](CO)c4ccccc4)cnc3-c3cc(F)ccc3O)cc12", "values": [
      {"measurement": "IC50", "setting": "[4]", "value": 156, "unit": "nM"},
      {"measurement": "IC50", "setting": "RT-112", "value": 122, "unit": "nM"},
      {"measurement": "IC50", "setting": "NCI-H1581", "value": 391, "unit": "nM"},
      {"measurement": "IC50", "setting": "SNU-16", "value": 24.8, "unit": "nM"},
      {"measurement": "IC50", "setting": "KG-1", "value": 14.5, "unit": "nM"}
    ]},
    {"molecule": "O=S(=O)(c1cn(CCF)cn1)n1ncc2ncc(-c3cn[nH]c3)nc21", "values": [
      {"measurement": "inhibition", "setting": "[3]", "value": 93.3, "unit": "%"}
    ]},
    {"molecule": "Cc1nc(OCC(=O)N/N=C/c2ccc(Cl)cc2)c2c(C)nn(-c3ccccc3)c2n1", "values": [
      {"measurement": "IC50", "setting": "[5]", "value": 9590, "unit": "nM"}
    ]}
  ]
}
